Tests used:
Test in all cases: combination Emax (second highest fraction inhibited in the dose matrix, 72 h); higher = more inhibition; extreme values may be limits of the assay
CAL-78 (Chondrosarcoma) = test system: CAL-78 (Chondrosarcoma)
Outline: (§1)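 After 24 hours at 37°C and 5% CO2 in 1536-well plates, cells in DMEM/F12 or RPMI plus 10% FBS received two-drug dose matrices for 72 hours. Viability came from CellTiter-Glo 2.0 luminescence and was scaled as inhibition, anchored at 0 by vehicle wells and at 1 by blank wells. Combination Emax is taken as the second-highest inhibition in the matrix, and Bliss excess as the observed combination effect less EA + EB − EA·EB, with EA and EB the single-agent effects.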

[1] = test system: CFPAC-1 (Pancreatic Carcinoma)
Outline: as §1

[2] = test system: COR-L23 (Non-Small Cell Lung Carcinoma)
Outline: as §1

[3] = test system: CTV-1 (T-Lymphoblastic Leukemia)
Outline: as §1

[4] = test system: DB (B-Cell Non-Hodgkin's Lymphoma)
Outline: as §1

DSH1 (Bladder Carcinoma) = test system: DSH1 (Bladder Carcinoma)
Outline: as §1

[5] = test system: EM-2 (Chronic Myelogenous Leukemia)
Outline: as §1

ES7 (Ewing's Sarcoma) = test system: ES7 (Ewing's Sarcoma)
Outline: as §1

[6] = test system: HCC2157 (Breast Carcinoma)
Outline: as §1

[7] = test system: HT-29 (Colorectal Carcinoma)
Outline: as §1

J82 (Bladder Carcinoma) = test system: J82 (Bladder Carcinoma)
Outline: as §1

[8] = test system: KARPAS-620 (Plasma Cell Myeloma)
Outline: as §1

[9] = test system: KM-H2 (Hodgkin's Lymphoma)
Outline: as §1

[10] = test system: LU-99A (Non-Small Cell Lung Carcinoma)
Outline: as §1

[11] = test system: MDA-MB-231 (Breast Carcinoma)
Outline: as §1

NCI-H2369 (Mesothelioma) = test system: NCI-H2369 (Mesothelioma)
Outline: as §1

RH-1 (Ewing's Sarcoma) = test system: RH-1 (Ewing's Sarcoma)
Outline: as §1

[12] = test system: SNU-C5 (Colorectal Carcinoma)
Outline: as §1

[13] = test system: SUIT-2 (Pancreatic Carcinoma)
Outline: as §1

[14] = test system: U-266 (Plasma Cell Myeloma)
Outline: as §1

SMILES	combination Emax (CAL-78 (Chondrosarcoma))	combination Emax [1]	combination Emax [2]	combination Emax [3]	combination Emax [4]	combination Emax (DSH1 (Bladder Carcinoma))	combination Emax [5]	combination Emax (ES7 (Ewing's Sarcoma))	combination Emax [6]	combination Emax [7]	combination Emax (J82 (Bladder Carcinoma))	combination Emax [8]	combination Emax [9]	combination Emax [10]	combination Emax [11]	combination Emax (NCI-H2369 (Mesothelioma))	combination Emax (RH-1 (Ewing's Sarcoma))	combination Emax [12]	combination Emax [13]	combination Emax [14]
CCc1c2c(nc3ccc(O)cc13)-c1cc3c(c(=O)n1C2)COC(=O)[C@]3(O)CC [SN-38] + CN(C)CCCOc1ccc(-c2ccc3ncc4c(c3c2)n(C2CCOCC2)c(=O)n4C)cn1 [AZD0156] (first compound max 0.3 µM, 7x7, partner max 1 µM)	0.587	0.789	0.686	1	0.97	0.904	0.985	1	0.969	0.89	0.784	0.437	0.907	0.769	0.658	0.32	1	0.757	0.744	0.482
C[C@@H](c1ccc2nccn2c1)n1nnc2ncc(-c3cnn(C)c3)nc21 [Savolitinib] + CC1(C)CCC(CN2CCN(c3ccc(C(=O)NS(=O)(=O)c4ccc(NCC5CCOCC5)c([N+](=O)[O-])c4)c(Oc4cnc5[nH]ccc5c4)c3)CC2)=C(c2ccc(Cl)cc2)C1 [Venetoclax] (first compound max 1 µM, 7x7, partner max 1 µM)	0.187	0.0889	0.111	0.091	0.741	0.286	0.132	0.177	0.186	0.149	0.145	0.776	0.15	0.0525	0.306	0.096	0.0824	0.183	0.168	0.259
C[C@@H](c1ccc2nccn2c1)n1nnc2ncc(-c3cnn(C)c3)nc21 [Savolitinib] + Cc1c2c(nn1C)CSCc1cc(n(C)n1)CSc1cc(c3ccccc3c1)OCCCc1c(C(=O)O)n(C)c3c-2c(Cl)ccc13 [AZD5991] (first compound max 1 µM, 7x7, partner max 1 µM)	0.697	0.115	0.142	0.113	0.986	0.678	0.364	0.554	0.978	0.142	0.205	0.997	0.11	0.134	0.284	0.116	0.518	0.177	0.208	0.859
Cn1cnc2c(F)c(Nc3ccc(Br)cc3Cl)c(C(=O)NOCCO)cc21 [Selumetinib] + C=CCn1c(=O)c2cnc(Nc3ccc(N4CCN(C)CC4)cc3)nc2n1-c1cccc(C(C)(C)O)n1 [AZD1775] (first compound max 10 µM, partner max 1 µM)	0.544	0.453	0.722	0.963	0.793	0.503	0.92	0.486	0.729	0.889	0.299	0.849	0.926	0.62	0.577	0.276	1	0.722	0.588	0.847
Cn1cnc2c(F)c(Nc3ccc(Br)cc3Cl)c(C(=O)NOCCO)cc21 [Selumetinib] + CC(C)n1c(=O)n(C)c2cnc3cc(F)c(-c4ccc(OCCCN5CCCCC5)nc4)cc3c21 [AZD1390] (first compound max 10 µM, 7x7, partner max 0.3 µM)	0.136	0.202	0.268	0.331	0.304	0.323	0.545	0.14	0.238	0.709	0.787	0.472	0.153	0.358	0.501	0.129	0.048	0.351	0.284	0.532
Cn1cnc2c(F)c(Nc3ccc(Br)cc3Cl)c(C(=O)NOCCO)cc21 [Selumetinib] + CCN(CCO)CCCOc1ccc2c(Nc3cc(CC(=O)Nc4cccc(F)c4)[nH]n3)ncnc2c1 [AZD2811] (first compound max 10 µM, 7x7, partner max 1 µM)	0.267	0.292	0.467	0.291	0.411	0.383	0.88	0.792	0.628	0.715	0.153	0.87	0.168	0.453	0.519	0.203	0.935	0.436	0.349	0.594
Cn1cnc2c(F)c(Nc3ccc(Br)cc3Cl)c(C(=O)NOCCO)cc21 [Selumetinib] + C[C@@H]1COCCN1C2=NC(=NC(=C2)C3(CC3)[S@](=N)(=O)C)C4=C5C=CNC5=NC=C4 [AZD6738] (first compound max 10 µM, 7x7, partner max 10 µM)	0.42	0.667	0.615	0.906	0.274	0.761	0.954	0.777	0.856	0.862	0.482	0.935	0.751	0.569	0.718	0.187	0.899	0.789	0.386	0.717
CC(=O)Nc1cccc(-n2c(=O)n(C3CC3)c(=O)c3c(Nc4ccc(I)cc4F)n(C)c(=O)c(C)c32)c1 [Trametinib] + Cc1nc(-c2cn3c(n2)-c2ccc(-c4cnn(C(C)(C)C(N)=O)c4)cc2OCC3)n(C(C)C)n1 [Taselisib] (first compound max 1 µM, 7x7, partner max 10 µM)	0.512	0.826	0.919	0.96	0.212	0.994	0.935	0.673	1	0.981	0.593	1	0.227	0.984	0.868	0.294	0.594	0.794	0.702	0.796
CC1(C)CCC(CN2CCN(c3ccc(C(=O)NS(=O)(=O)c4ccc(NCC5CCOCC5)c([N+](=O)[O-])c4)c(Oc4cnc5[nH]ccc5c4)c3)CC2)=C(c2ccc(Cl)cc2)C1 [Venetoclax] + C1CN(CCC1(C(=O)N[C@@H](CCO)C2=CC=C(C=C2)Cl)N)C3=NC=NC4=C3C=CN4 [Capivasertib] (first compound max 1 µM, 7x7, partner max 3 µM)	0.263	0.305	0.245	0.359	0.941	0.416	0.338	0.8	0.903	0.254	0.259	1	0.153	0.312	0.184	0.134	0.213	0.318	0.129	0.555
CC1(C)CCC(CN2CCN(c3ccc(C(=O)NS(=O)(=O)c4ccc(NCC5CCOCC5)c([N+](=O)[O-])c4)c(Oc4cnc5[nH]ccc5c4)c3)CC2)=C(c2ccc(Cl)cc2)C1 [Venetoclax] + C=CCn1c(=O)c2cnc(Nc3ccc(N4CCN(C)CC4)cc3)nc2n1-c1cccc(C(C)(C)O)n1 [AZD1775] (first compound max 1 µM, partner max 1 µM)	0.51	0.495	0.602	0.992	1	0.48	0.949	0.888	0.782	0.89	0.177	0.976	0.974	0.463	0.481	0.27	1	0.57	0.596	0.85
CC1(C)CCC(CN2CCN(c3ccc(C(=O)NS(=O)(=O)c4ccc(NCC5CCOCC5)c([N+](=O)[O-])c4)c(Oc4cnc5[nH]ccc5c4)c3)CC2)=C(c2ccc(Cl)cc2)C1 [Venetoclax] + CCN(CCO)CCCOc1ccc2c(Nc3cc(CC(=O)Nc4cccc(F)c4)[nH]n3)ncnc2c1 [AZD2811] (first compound max 1 µM, 7x7, partner max 1 µM)	0.328	0.259	0.172	0.184	0.965	0.271	0.864	0.911	0.762	0.214	0.177	1	0.305	0.299	0.226	0.173	0.951	0.19	0.187	0.614
CC1(C)CCC(CN2CCN(c3ccc(C(=O)NS(=O)(=O)c4ccc(NCC5CCOCC5)c([N+](=O)[O-])c4)c(Oc4cnc5[nH]ccc5c4)c3)CC2)=C(c2ccc(Cl)cc2)C1 [Venetoclax] + CN(C)CCCOc1ccc(-c2ccc3ncc4c(c3c2)n(C2CCOCC2)c(=O)n4C)cn1 [AZD0156] (first compound max 1 µM, 7x7, partner max 1 µM)	0.248	0.342	0.147	0.0786	0.971	0.156	0.174	0.925	0.377	0.233	0.186	0.989	0.206	0.16	0.267	0.194	0.221	0.185	0.207	0.56

Reference: the supplement of paper PMC11061612
